From patent US8183262B2, “Pyridine derivatives as mGluR2 antagonists” (Hoffmann-La Roche Inc., priority 2007, dated 2012) come the findings set out here.

The structures appear in SMILES notation.

As a reminder, the melting point is the temperature of the solid-liquid transition.

`O=S(=O)(c1cccc(-c2cc(-c3nc(-c4ccc(C(F)(F)F)cc4)cc(C(F)(F)F)n3)ccn2)c1)N1CCC(O)C1` (racemic) [Example 407, (RS)-1-(3-{4-[4-Trifluoromethyl-6-(4-trifluoromethyl-phenyl)-pyrimidin-2-yl]-pyridin-2-yl}-benzenesulfonyl)-pyrrolidin-3-ol] registered a melting point of 234 °C.

Compound `FC(F)(F)c1ccc(-c2cc(C(F)(F)F)nc(-n3cccc3)n2)cc1` [Example 4, 2-Pyrrol-1-yl-4-trifluoromethyl-6-(4-trifluoromethyl-phenyl)-pyrimidine] registered a melting point of 120.5 °C.

For `FC(F)(F)c1cc(-c2ccc(Cl)cc2)nc(-n2cccc2)n1` [Example 6, 4-(4-Chloro-phenyl)-2-pyrrol-1-yl-6-trifluoromethyl-pyrimidine], the melting point is 128.5 °C.

Regarding `FC(F)(F)c1cc(-c2ccc(Cl)cc2)nc(-n2cnc(-c3cccnc3)c2)n1` [Example 7, 4-(4-Chloro-phenyl)-2-(4-pyridin-3-yl-imidazol-1-yl)-6-trifluoromethyl-pyrimidine], the melting point stood at 228 °C.

The compound `Nc1ccc(-c2noc(-c3nc(-c4ccc(Cl)cc4)cc(C(F)(F)F)n3)n2)cn1` [Example 9, 5-{5-[4-(4-Chloro-phenyl)-6-trifluoromethyl-pyrimidin-2-yl]-[1,2,4]oxadiazol-3-yl}-pyridin-2-ylamine] yielded a melting point of 211 °C.

In the case of `Nc1cc(-c2noc(-c3nc(-c4ccc(C(F)(F)F)cc4)cc(C(F)(F)F)n3)n2)ccn1` [Example 12, 4-{5-[4-Trifluoromethyl-6-(4-trifluoromethyl-phenyl)-pyrimidin-2-yl]-[1,2,4]oxadiazol-3-yl}-pyridin-2-ylamine], the melting point is 223.5 °C.

Take `Nc1ccc(-c2cn(-c3nc(-c4ccc(C(F)(F)F)cc4)cc(C(F)(F)F)n3)cn2)cn1` [Example 13, 5-{1-[4-Trifluoromethyl-6-(4-trifluoromethyl-phenyl)-pyrimidin-2-yl]-1H-imidazol-4-yl}-pyridin-2-ylamine]: the melting point is 286 °C.

On to `Nc1ccc(-c2cn(-c3nc(-c4ccc(Cl)cc4)cc(C(F)(F)F)n3)cn2)cn1` [Example 14, 5-{1-[4-(4-Chloro-phenyl)-6-trifluoromethyl-pyrimidin-2-yl]-1H-imidazol-4-yl}-pyridin-2-ylamine], for which the melting point was found to be 254 °C.

`NS(=O)(=O)c1ccc(-c2noc(-c3nc(-c4ccc(C(F)(F)F)cc4)cc(C(F)(F)F)n3)n2)cc1` [Example 15, 4-{5-[4-Trifluoromethyl-6-(4-trifluoromethyl-phenyl)-pyrimidin-2-yl]-[1,2,4]oxadiazol-3-yl}-benzenesulfonamide] yielded a melting point of 302 °C.

`NS(=O)(=O)c1cccc(-c2noc(-c3nc(-c4ccc(C(F)(F)F)cc4)cc(C(F)(F)F)n3)n2)c1` [Example 16, 3-{5-[4-Trifluoromethyl-6-(4-trifluoromethyl-phenyl)-pyrimidin-2-yl]-[1,2,4]oxadiazol-3-yl}-benzenesulfonamide] registered a melting point of 204 °C.

As to `NS(=O)(=O)c1ccc(-c2noc(-c3nc(-c4ccc(Cl)cc4)cc(C(F)(F)F)n3)n2)cc1` [Example 17, 4-{5-[4-(4-Chloro-phenyl)-6-trifluoromethyl-pyrimidin-2-yl]-[1,2,4}oxadiazol-3-yl]-benzenesulfonamide], the melting point was found to be 289.5 °C.

The compound `NS(=O)(=O)c1cccc(-c2noc(-c3nc(-c4ccc(Cl)cc4)cc(C(F)(F)F)n3)n2)c1` [Example 18, 3-{5-[4-(4-Chloro-phenyl)-6-trifluoromethyl-pyrimidin-2-yl]-[1,2,4}oxadiazol-3-yl]-benzenesulfonamide] had a melting point of 231 °C.

`Nc1ccc(-c2cnn(-c3nc(-c4ccc(C(F)(F)F)cc4)cc(C(F)(F)F)n3)c2)cn1` [Example 19, 5-{1-[4-Trifluoromethyl-6-(4-trifluoromethyl-phenyl)-pyrimidin-2-yl]-1H-pyrazol-4-yl}-pyridin-2-ylamine] came in with a melting point of 206 °C.

With `Nc1ncc(-c2noc(-c3nc(-c4ccc(C(F)(F)F)cc4)cc(C(F)(F)F)n3)n2)cn1` [Example 20, 5-{5-[4-Trifluoromethyl-6-(4-trifluoromethyl-phenyl)-pyrimidin-2-yl]-[1,2,4]oxadiazol-3-yl}-pyrimidin-2-ylamine], the melting point was 216 °C.

`Nc1ccc(-c2nc(-c3nc(-c4ccc(C(F)(F)F)cc4)cc(C(F)(F)F)n3)no2)cn1` [Example 21, 5-{3-[4-Trifluoromethyl-6-(4-trifluoromethyl-phenyl)-pyrimidin-2-yl]-[1,2,4]oxadiazol-5-yl}-pyridin-2-ylamine] gave a melting point of 205 °C.

As for `Nc1ccc(-c2nc(-c3nc(-c4ccc(Cl)cc4)cc(C(F)(F)F)n3)no2)cn1` [Example 22, 5-{3-[4-(4-Chloro-phenyl)-6-trifluoromethyl-pyrimidin-2-yl]-[1,2,4]oxadiazol-5-yl}-pyridin-2-ylamine], the melting point was determined as 191 °C.

`NS(=O)(=O)c1ccc(-c2nc(-c3nc(-c4ccc(C(F)(F)F)cc4)cc(C(F)(F)F)n3)no2)s1` [Example 23, 5-{3-[4-Trifluoromethyl-6-(4-trifluoromethyl-phenyl)-pyrimidin-2-yl]-[1,2,4]oxadiazol-5-yl}-thiophene-2-sulfonic acid amide] gave a melting point of 258.5 °C.

For `NS(=O)(=O)c1ccc(-c2nc(-c3nc(-c4ccc(Cl)cc4)cc(C(F)(F)F)n3)no2)s1` [Example 24, 5-{3-[4-(4-Chloro-phenyl)-6-trifluoromethyl-pyrimidin-2-yl]-[1,2,4]oxadiazol-5-yl}-thiophene-2-sulfonic acid amide], the melting point turned out to be 236.5 °C.

Take `FC(F)(F)c1cc(-c2ccc(Cl)cc2)nc(-n2cnc(-c3ccncc3)c2)n1` [Example 25, 4-(4-Chloro-phenyl)-2-(4-pyridin-4-yl-imidazol-1-yl)-6-trifluoromethyl-pyrimidine]: the melting point stood at 269 °C.

`Nc1ccc(-c2cccc(-c3nc(-c4ccc(Cl)cc4)cc(C(F)(F)F)n3)c2)cn1` [Example 27, 5-{3-[4-(4-Chloro-phenyl)-6-trifluoromethyl-pyrimidin-2-yl]-phenyl}-pyridin-2-ylamine] yielded a melting point of 171 °C.

On to `FC(F)(F)c1cc(-c2ccc(Cl)cc2)nc(-c2nc(-c3ccncc3)no2)n1` [Example 28, 4-(4-Chloro-phenyl)-2-(3-pyridin-4-yl-[1,2,4]oxadiazol-5-yl)-6-trifluoromethyl-pyrimidine], for which the melting point is 187.5 °C.

With `FC(F)(F)c1cc(-c2ccc(Cl)cc2)nc(-c2nc(-c3cccnc3)no2)n1` [Example 29, 4-(4-Chloro-phenyl)-2-(3-pyridin-3-yl-[1,2,4]oxadiazol-5-yl)-6-trifluoromethyl-pyrimidine], the melting point stood at 168.5 °C.

For `Nc1ccc(-c2cc(-c3nc(-c4ccc(Cl)cc4)cc(C(F)(F)F)n3)ccn2)cn1` [Example 30, 4-[4-(4-Chloro-phenyl)-6-trifluoromethyl-pyrimidin-2-yl]-[2,3′]bipyridinyl-6′-ylamine], the melting point was 227 °C.

Consider `Nc1ccc(-c2cc(-c3nc(-c4ccc(C(F)(F)F)cc4)cc(C(F)(F)F)n3)ccn2)cn1` [Example 31, 4-[4-Trifluoromethyl-6-(4-trifluoromethyl-phenyl)-pyrimidin-2-yl]-[2,3′]bipyridinyl-6′-ylamine], for which the melting point came out at 226 °C.
